What all share (format): in vivo, mouse
Experiment [1] has as its system Ang II-induced renal fibrosis. Description: Ang II therapeutic model: renal fibrosis, Sirius red. The following applies: Ang II four weeks, 20 mg/kg oral last two weeks, #p<0.05 versus Ang II group. The protocol: For the therapeutic model, infusion of Ang II for four weeks and the compound of Formula (VIII) (20 mg/kg) was administrated after two weeks of pump implantation. Subcutaneous infusion of Ang II using ALZET osmotic minipumps was used to study the preventive effects of the compound ALZET® osmotic minipumps (Model #2004, Charles Rives, Barcelona, Spain) delivering of Ang II (500 ng kg^−1 min^−1) (Sigma-Aldrich, Madrid, Spain) for four weeks. Compound treatment was daily administered in parallel, two weeks after the implantation of the subcutaneous pump, beneath the midscapular loose skin and consisted of daily oral gavage of compound of Formula (VIII) (20 mg/kg) or vehicle (Corn Oil/Maisine CC, 1/1). Mice were acclimated to manipulators for a week previously to the experiments in order to reduce stress and allow the detection of subtle changes in behavior by researchers. […] Neither piloerection nor hunched appearances were appreciated during the experimental procedures. Mice were sacrificed by cervical dislocation and the heart, aorta, kidney, and lung were removed and processed for histological examination or were frozen for further analysis.

Experiment [2] concerns Ang II-induced aortic fibrosis. In words: Ang II preventive model: aorta sections, picrosirius red. The following applies: Ang II two weeks, oral treatment. As for the experimental part: Ang II causes myocardial fibrosis in a short period of time (Sopel M et al., 2011, Lab. Invest., 91:565-578) characterized by collagen accumulation and after 14 days of Ang II infusion (Sigusch H H et al., 1996, Cardiovascular Research, 31:546-554). […] Subcutaneous infusion of Ang II using ALZET® osmotic pumps was used to study compound preventive effects. ALZET® osmotic minipumps (Model #2004, Charles Rives, Barcelona, Spain) delivering of Ang II (1.0 mg kg^− min^−) (Sigma-Aldrich, Madrid, Spain) for two weeks. Compound treatment was daily administered in parallel, one day before of the implantation of the subcutaneous pump, beneath the mid scapular loose skin and consisted of daily oral gavage of compound (20 mg/kg) or vehicle (Corn Oil/Maisine CC, 1/1). Mice were acclimated to manipulators for a week previously to the experiments in order to reduce stress and allow the detection of subtle changes in behavior by researchers. […] Neither piloerection nor hunched appearances were appreciated during the experimental procedures. […]
Mice treated with Ang II presented an increase in the thickness of aortic media layer by collagen accumulation. […] Three-four random fields of each heart were photographed by standard brightfield microscopy and digitalized using a Leica DFC420c camera and analyzed using Fiji software (rsb.info.nih.gov/ij/).

In experiment [3] the test system is Ang II-induced dermal fibrosis. Description: Ang II-induced dermal fibrosis, preventive model, Sirius Red. Conditions: Ang II 1.0 mg kg^- min^- two weeks, 20 mg/kg oral gavage. As for the experimental part:
The local renin angiotensin system exists in almost all organs, including skin. Ang II induces fibrosis in the skin via accumulation of activated fibroblasts. Dermal fibrosis was induced in mice by infusion of Ang II (1.0 mg kg^− min^−) for two weeks. The treatment with the compound of Formula (VIII) by oral gavage was the same as describe in Example 2. After two weeks of treatment, the mice were sacrificed under ether anesthesia. Skin samples were collected and fixed in 4% paraformaldehyde and embedded in paraffin. Skin sections (5 μm) were stained with Sirius Red for evaluation of fibrosis. Subcutaneous Ang II infusion induced a significant increase of collagen content and in the mice treated with compound, the induction of fibrosis in the skin is prevented (FIG. 11).

Experiment [4] concerns E2F pathway. In words: RNA-Seq of myocardial tissue with GSEA of MSigDb hallmarks, Ang II preventive model. The following applies: cardiac RNA; Ang II-challenged mice; n=3 each group. As for the experimental part: RNA seq analysis from RNA extracted of myocardial tissue was performed. Transcriptome libraries were constructed with TruSeq Illumina TruSeq mRNA Sample Prep v2 kit (#RS-122-2001). In brief, 300 ng of RNA from each sample was used to construct a cDNA library, followed by sequencing on the Illumina Hiseq 2500 with single end 50 bp reads and ˜30 million reads per sample.
RNA-Seq reads were pre-processed with fastp (v0.20.0) and aligned to mouse genome assembly grcm38 using HISAT2 (v2.1.0). Then, counts per gene were obtained with featureCounts (v1.6.1) and normalization and differential expression analyses were carried out using edgeR (v3.26.8), excluding those genes with less than 15 counts across all samples. Finally, the functional analysis was performed using the functional categories defined by MSigDb hallmarks for Mus musculus (V7.0) and the clusterProfiler package (v3.12.0).
The results confirmed the hallmarks that were enriched in the Ang II group versus control group were pathways related to fibrotic response; this was the case of IFN-α and IFN-γ response, TNF-α signaling via NF-KB, Epithelial Mesenchymal Transition and inflammatory responses, including IL6 JAK STAT Signaling (FIG. 6). The results were obtained after carrying out the functional analysis of the transcriptomic signatures in heart tissue. […]

The source of these data is patent US20230137092A1, “Composition and Method for the Treatment and Prevention of Cardiac, Pulmonary, Dermal, and Renal Fibrosis” (EMERALD HEALTH PHARMACEUTICALS INC., priority 2020, published 2023).

SMILES strings stand for the structures.

`C=C(C)C1CCC(C)=C[C@H]1C1=C(O)C(=O)C(CCCCC)=C(NCc2ccccc2)C1=O` (stereo partly shown) [Formula (VIII)]: in experiment [1], the “renal fibrosis (collagen accumulation in kidney)” value is “reduced”. In addition, the “thickness of aortic media layer by collagen accumulation” value in experiment [2] is “significantly alleviated”. Besides, the “induction of fibrosis in the skin (collagen content)” value in experiment [3] is “prevented”. The “expression of a set of genes of E2F pathway (RNA-Seq)” value in experiment [4] is “clearly downregulated”.
